In ChEMBL document CHEMBL5331051, “Cationic, amphipathic small molecules based on a triazine-piperazine-triazine scaffold as a new class of antimicrobial agents” (Eur J Med Chem, 2022):
The source made the active and inactive calls. No cut-off for these calls is given here.

What was measured:
Cell membrane = experiment: Induction of inner membrane permeabilization in Escherichia coli ML-35 assessed as increase in […] at 2 times MIC by ONPG staining based analysis
Staphylococcus aureus [1] = experiment: Antibacterial activity against Staphylococcus aureus KCTC 1621 strain assessed as bacterial growth inhibition measured at 18 to 24 hrs in presence of 4.5 mM KCl by microdilution assay; assay type: functional; settings: time 18-24 hrs
Escherichia coli [2] = experiment: Antibacterial activity against Escherichia coli KCTC 1682 strain assessed as bacterial growth inhibition measured at 18 to 24 hrs in presence of 4.5 mM KCl by microdilution assay; assay type: functional; settings: time 18-24 hrs
Staphylococcus aureus [3] = experiment: Synergistic antibacterial activity against methicillin-resistant Staphylococcus aureus CCARM 3089 strain assessed as fractional inhibitory concentration in presence of chloramphenicol by checkerboard assay; assay type: functional
Staphylococcus aureus [4] = experiment: Potency index, ratio of melittin MIC to test compound MIC against methicillin-resistant Staphylococcus aureus CCARM 3095 assessed as bacterial growth inhibition measured at 18 to 24 hrs by microdilution assay; assay type: functional; settings: time 18-24 hrs
Staphylococcus aureus [5] = experiment: Synergistic antibacterial activity against multidrug-resistant Staphylococcus aureus CCARM 3089 strain assessed as fractional inhibitory concentration index in presence of chloramphenicol by checkerboard assay; assay type: functional
Pseudomonas aeruginosa [6] = experiment: Bacteriostatic activity against multidrug-resistant Pseudomonas aeruginosa CCARM 2095 measured after 24 hrs by time-kill kinetics assay; assay type: functional, organism-based
Staphylococcus aureus [7] = experiment: Synergistic antibacterial activity against methicillin-resistant Staphylococcus aureus CCARM 3089 strain assessed as chloramphenicol MIC by checkerboard assay; assay type: functional
Staphylococcus aureus [8] = experiment: Synergistic antibacterial activity against methicillin-resistant Staphylococcus aureus CCARM 3089 strain assessed as bacterial growth inhibition in presence of chloramphenicol by checkerboard assay; assay type: functional
Staphylococcus aureus [9] = experiment: Synergistic antibacterial activity against multidrug-resistant Staphylococcus aureus CCARM 3089 strain assessed as chloramphenicol fractional inhibitory concentration by checkerboard assay; assay type: functional
Pseudomonas aeruginosa [10] = experiment: Synergistic bactericidal activity against multidrug-resistant Pseudomonas aeruginosa CCARM 2095 at 0.5 times MIC measured after 60 mins in presence of 0.5 times MIC of oxacillin by time-kill kinetics assay; assay type: functional, organism-based
Staphylococcus aureus [11] = experiment: Additive antibacterial activity against multidrug-resistant Staphylococcus aureus CCARM 3089 strain assessed as chloramphenicol fractional inhibitory concentration by checkerboard assay; assay type: functional
Escherichia coli [12] = experiment: Antibacterial activity against Escherichia coli assessed as bacterial growth inhibition measured at 18 to 24 hrs in presence of CDFA based microdilution assay; assay type: functional; settings: time 18-24 hrs
Pseudomonas aeruginosa [13] = experiment: Synergistic bactericidal activity against multidrug-resistant Pseudomonas aeruginosa CCARM 2095 at 0.5 times MIC measured after 60 mins in presence of 0.5 times MIC of ciprofloxacin by time-kill kinetics assay; assay type: functional, organism-based
Staphylococcus aureus [14] = experiment: Potency index, ratio of melittin MIC to test compound MIC against methicillin-resistant Staphylococcus aureus CCARM 3089 assessed as bacterial growth inhibition measured at 18 to 24 hrs by microdilution assay; assay type: functional; settings: time 18-24 hrs
Staphylococcus aureus [15] = experiment: Potency index, ratio of melittin MIC to test compound MIC against methicillin-resistant Staphylococcus aureus CCARM 3090 assessed as bacterial growth inhibition measured at 18 to 24 hrs by microdilution assay; assay type: functional; settings: time 18-24 hrs
Pseudomonas aeruginosa [16] = experiment: Additive antibacterial activity against multidrug-resistant Pseudomonas aeruginosa CCARM 2095 strain assessed as fractional inhibitory concentration index in presence of oxacillin by checkerboard assay; assay type: functional
Pseudomonas aeruginosa [17] = experiment: Additive antibacterial activity against multidrug-resistant Pseudomonas aeruginosa CCARM 2095 strain assessed as oxacillin fractional inhibitory concentration by checkerboard assay; assay type: functional
Pseudomonas aeruginosa [18] = experiment: Antibacterial activity against multidrug-resistant Pseudomonas aeruginosa CCARM 2095 strain assessed as fractional inhibitory concentration in presence of chloramphenicol by checkerboard assay; assay type: functional
Staphylococcus aureus [19] = experiment: Additive antibacterial activity against methicillin-resistant Staphylococcus aureus CCARM 3089 strain assessed as ciprofloxacin MIC by checkerboard assay; assay type: functional
Pseudomonas aeruginosa [20] = experiment: Additive antibacterial activity against multidrug-resistant Pseudomonas aeruginosa CCARM 2095 strain assessed as Oxacillin MIC by checkerboard assay; assay type: functional
Staphylococcus aureus [21] = experiment: Additive antibacterial activity against multidrug-resistant Staphylococcus aureus CCARM 3089 strain assessed as fractional inhibitory concentration index in presence of ciprofloxacin by checkerboard assay; assay type: functional
Pseudomonas aeruginosa [22] = experiment: Antibacterial activity against multidrug-resistant Pseudomonas aeruginosa CCARM 2095 strain assessed as fractional inhibitory concentration index in presence of chloramphenicol by checkerboard assay; assay type: functional
Staphylococcus aureus [23] = experiment: Additive antibacterial activity against methicillin-resistant Staphylococcus aureus CCARM 3089 strain assessed as bacterial growth inhibition in presence of ciprofloxacin by checkerboard assay; assay type: functional
Pseudomonas aeruginosa [24] = experiment: Antibacterial activity against multidrug-resistant Pseudomonas aeruginosa CCARM 2095 strain assessed as chloramphenicol MIC by checkerboard assay; assay type: functional
Pseudomonas aeruginosa [25] = experiment: Antibacterial activity against multidrug-resistant Pseudomonas aeruginosa CCARM 2095 strain assessed as bacterial growth inhibition in presence of chloramphenicol by checkerboard assay; assay type: functional
Pseudomonas aeruginosa [26] = experiment: Additive antibacterial activity against multidrug-resistant Pseudomonas aeruginosa CCARM 2095 strain assessed as bacterial growth inhibition in presence of oxacillin by checkerboard assay; assay type: functional
Pseudomonas aeruginosa [27] = experiment: Additive antibacterial activity against multidrug-resistant Pseudomonas aeruginosa CCARM 2095 strain assessed as fractional inhibitory concentration in presence of oxacillin by checkerboard assay; assay type: functional
Staphylococcus aureus [28] = experiment: Additive antibacterial activity against methicillin-resistant Staphylococcus aureus CCARM 3089 strain assessed as oxacillin MIC by checkerboard assay; assay type: functional
Pseudomonas aeruginosa [29] = experiment: Additive antibacterial activity against multidrug-resistant Pseudomonas aeruginosa CCARM 2095 strain assessed as chloramphenicol MIC by checkerboard assay; assay type: functional
Pseudomonas aeruginosa [30] = experiment: Additive antibacterial activity against multidrug-resistant Pseudomonas aeruginosa CCARM 2095 strain assessed as bacterial growth inhibition by checkerboard assay; assay type: functional
Pseudomonas aeruginosa [31] = experiment: Additive antibacterial activity against multidrug-resistant Pseudomonas aeruginosa CCARM 2095 strain assessed as ciprofloxacin MIC by checkerboard assay; assay type: functional
Pseudomonas aeruginosa [32] = experiment: Additive antibacterial activity against multidrug-resistant Pseudomonas aeruginosa CCARM 2095 strain assessed as fractional inhibitory concentration in presence of chloramphenicol by checkerboard assay; assay type: functional
Pseudomonas aeruginosa [33] = experiment: Additive antibacterial activity against multidrug-resistant Pseudomonas aeruginosa CCARM 2095 strain assessed as fractional inhibitory concentration index in presence of chloramphenicol by checkerboard assay; assay type: functional
Pseudomonas aeruginosa [34] = experiment: Additive antibacterial activity against multidrug-resistant Pseudomonas aeruginosa CCARM 2095 strain assessed as ciprofloxacin fractional inhibitory concentration by checkerboard assay; assay type: functional
Pseudomonas aeruginosa [35] = experiment: Additive antibacterial activity against multidrug-resistant Pseudomonas aeruginosa CCARM 2095 strain assessed as bacterial growth inhibition in presence of ciprofloxacin by checkerboard assay; assay type: functional
Pseudomonas aeruginosa [36] = experiment: Additive antibacterial activity against multidrug-resistant Pseudomonas aeruginosa CCARM 2095 strain assessed as bacterial growth inhibition in presence of chloramphenicol by checkerboard assay; assay type: functional
Pseudomonas aeruginosa [37] = experiment: Additive antibacterial activity against multidrug-resistant Pseudomonas aeruginosa CCARM 2095 strain assessed as fractional inhibitory concentration in presence of ciprofloxacin by checkerboard assay; assay type: functional
Staphylococcus aureus [38] = experiment: Antibacterial activity against multidrug-resistant Staphylococcus aureus CCARM 3089 strain assessed as fractional inhibitory concentration index in presence of ciprofloxacin by checkerboard assay; assay type: functional
Staphylococcus aureus [39] = experiment: Antibacterial activity against multidrug-resistant Staphylococcus aureus CCARM 3089 strain assessed as ciprofloxacin fractional inhibitory concentration by checkerboard assay; assay type: functional

Row | Structure (SMILES) | Activity (Cell membrane) | MIC (Staphylococcus aureus [1]) [µM] | MIC (Escherichia coli [2]) [µM] | FIC (Staphylococcus aureus [3]) | Ratio (Staphylococcus aureus [4]) | fractional inhibitory concentration index (FICI) (Staphylococcus aureus [5]) | MIC (Staphylococcus aureus [7]) [µg/mL] | MIC (Staphylococcus aureus [8]) [µg/mL] | FIC (Staphylococcus aureus [9]) | FIC (Staphylococcus aureus [11]) | Ratio (Staphylococcus aureus [14]) | Ratio (Staphylococcus aureus [15]) | fractional inhibitory concentration index (FICI) (Pseudomonas aeruginosa [16]) | FIC (Pseudomonas aeruginosa [17]) | MIC (Pseudomonas aeruginosa [20]) [µg/mL] | MIC (Pseudomonas aeruginosa [26]) [µg/mL] | FIC (Pseudomonas aeruginosa [27]) | other results
1 | NCCCCNc1nc(NCCCCN)nc(N2CC(Cc3ccccc3)N(c3nc(NCCCCN)nc(NCCCCN)n3)CC2Cc2ccccc2)n1 (stereo unspecified) | inactive | 5.2 | 10.4 |  |  |  |  |  |  |  |  |  |  |  |  |  |  | 
2 | NCCN(CCN)c1nc(NCc2ccccc2)nc(N2CC(Cc3ccccc3)N(c3nc(NCc4ccccc4)nc(N(CCN)CCN)n3)CC2Cc2ccccc2)n1 (stereo unspecified) | inactive | 5.4 | 5.4 | 0.5 | 2 | 0.5 | 128 | 2 | 0.25 | 0.25 | 2 | 2 |  |  |  |  |  | Activity (Pseudomonas aeruginosa [6]): inactive; Activity (Pseudomonas aeruginosa [10]): Active; MIC (Escherichia coli [12]): 8 µg/mL; Activity (Pseudomonas aeruginosa [13]): Active
3 | NCCNc1nc(NCCN)nc(N2CC(Cc3ccccc3)N(c3nc(NCCN)nc(NCCN)n3)CC2Cc2ccccc2)n1 (stereo unspecified) | inactive | 6.1 | 6.1 |  |  |  |  |  |  |  |  |  | 1 | 0.5 | 512 | 8 | 0.5 | FIC (Pseudomonas aeruginosa [18]): 1 µg/mL; MIC (Staphylococcus aureus [19]): 128 µg/mL; fractional inhibitory concentration index (FICI) (Staphylococcus aureus [21]): 0.75; fractional inhibitory concentration index (FICI) (Pseudomonas aeruginosa [22]): 1.25; MIC (Staphylococcus aureus [23]): 16 µg/mL; MIC (Pseudomonas aeruginosa [24]): 256 µg/mL; MIC (Pseudomonas aeruginosa [25]): 16 µg/mL
4 | NCCCN(CCCN)c1nc(NCc2ccccc2)nc(N2CC(Cc3ccccc3)N(c3nc(NCc4ccccc4)nc(N(CCCN)CCCN)n3)CC2Cc2ccccc2)n1 (stereo unspecified) | inactive | 2.5 | 5 | 0.5 | 2 | 0.5 | 128 | 1 | 0.25 | 0.25 | 2 | 2 |  |  |  |  |  | 
5 | N=C(N)NCCNc1nc(NCCNC(=N)N)nc(N2CC(Cc3ccccc3)N(c3nc(NCCNC(=N)N)nc(NCCNC(=N)N)n3)CC2Cc2ccccc2)n1 (stereo unspecified) | inactive | 4.8 | 9.7 |  |  |  |  |  |  |  |  |  | 0.75 | 0.25 | 256 | 16 | 0.5 | MIC (Staphylococcus aureus [28]): 128 µg/mL; MIC (Pseudomonas aeruginosa [29]): 256 µg/mL; MIC (Pseudomonas aeruginosa [30]): 16 µg/mL; MIC (Pseudomonas aeruginosa [31]): 512 µg/mL; FIC (Pseudomonas aeruginosa [32]): 0.5; fractional inhibitory concentration index (FICI) (Pseudomonas aeruginosa [33]): 0.75; FIC (Pseudomonas aeruginosa [34]): 0.5; MIC (Pseudomonas aeruginosa [35]): 16 µg/mL; MIC (Pseudomonas aeruginosa [36]): 8 µg/mL; FIC (Pseudomonas aeruginosa [37]): 0.5; fractional inhibitory concentration index (FICI) (Staphylococcus aureus [38]): 1.25; FIC (Staphylococcus aureus [39]): 0.25
